According to paper PMC6926482, “LCO Receptors Involved in Arbuscular Mycorrhiza Are Functional for Rhizobia Perception in Legumes” (Current Biology, 2019):

Assays:
SlLYK10c-YFP = target: T1, SlLYK10c-YFP; assay: radioligand competition on membrane fractions; assay type: binding, Solanum lycopersicum; conditions: competition with LCO-V(C18:1,NMe,35S) 1-2 nM
T1 construct: gene LYK10; SlLYK10 extracellular region fused to TM/ICR of Medicago truncatula NFP, YFP kept (about 102 kDa with 6 predicted N-glycans); expressed in Nicotiana benthamiana leaves, membrane fraction; with Serine/threonine receptor-like kinase NFP (Medicago truncatula; transmembrane and intracellular region fused to the SlLYK10 extracellular region)

PhLYK10-YFP = target: T2, PhLYK10-YFP; assay: radioligand competition on membrane fractions; assay type: binding, Petunia hybrida; conditions: competition with LCO-V(C18:1,NMe,35S) 1-2 nM; competitor tested at 1 μM only; pH 6
T2 construct: gene LYK10; expressed in Nicotiana benthamiana leaves, membrane fraction

[1] = competitor tested at 1 μM only, pH 6
[2] = 25 mM Na-cacodylate pH 6, 1 mM CaCl2, 1 mM MgCl2, n = 3

CC(=O)N[C@H]1[C@H](O[C@H]2[C@H](O)[C@@H](NC(C)=O)C(O)O[C@@H]2CO)O[C@H](CO)[C@@H](O[C@@H]2O[C@H](CO)[C@@H](O[C@@H]3O[C@H](CO)[C@@H](O)[C@H](O)[C@H]3NC(C)=O)[C@H](O)[C@H]2NC(C)=O)[C@@H]1O (stereo partly drawn) [CO4]
Ki (SlLYK10c-YFP; [1]): > 1000 nM | Ki (PhLYK10-YFP): > 1000 nM

CC(=O)N[C@H]1[C@H](O[C@H]2[C@H](O)[C@@H](NC(C)=O)[C@H](O[C@H]3[C@H](O)[C@@H](NC(C)=O)[C@H](O[C@H]4[C@H](O)[C@@H](NC(C)=O)C(O)O[C@@H]4CO)O[C@@H]3CO)O[C@@H]2CO)O[C@H](CO)[C@@H](O[C@@H]2O[C@H](CO)[C@@H](O[C@@H]3O[C@H](CO)[C@@H](O[C@@H]4O[C@H](CO)[C@@H](O[C@@H]5O[C@H](CO)[C@@H](O)[C@H](O)[C@H]5NC(C)=O)[C@H](O)[C@H]4NC(C)=O)[C@H](O)[C@H]3NC(C)=O)[C@H](O)[C@H]2NC(C)=O)[C@@H]1O (stereo partly drawn) [CO8]
Ki (SlLYK10c-YFP; [1]): > 1000 nM | Ki (PhLYK10-YFP): > 1000 nM

CCCCCCCCCCCCCCCC(=O)N[C@H]1[C@H](O[C@H]2[C@H](O)[C@@H](NC(C)=O)[C@H](O[C@H]3[C@H](O)[C@@H](NC(C)=O)[C@H](O[C@H]4[C@H](O)[C@@H](NC(C)=O)C(O)O[C@@H]4CO)O[C@@H]3CO)O[C@@H]2CO)O[C@H](CO)[C@@H](O)[C@@H]1O (stereo partly drawn) [LCO-IV(C16:0)]
Ki (SlLYK10c-YFP; [2]): 354 ± 60 nM

CCCCCCCCCCCCCCCC(=O)N[C@H]1[C@H](O[C@H]2[C@H](O)[C@@H](NC(C)=O)[C@H](O[C@H]3[C@H](O)[C@@H](NC(C)=O)[C@H](O[C@H]4[C@H](O)[C@@H](NC(C)=O)C(O)O[C@@H]4COS(=O)(=O)O)O[C@@H]3CO)O[C@@H]2CO)O[C@H](CO)[C@@H](O)[C@@H]1O (stereo partly drawn) [LCO-IV(C16:0,S)]
Ki (SlLYK10c-YFP; [2]): 192 ± 52 nM
